The values that follow come from patent publication US8889950B2, “Repression of AtGLR3.2 increases plant biomass” (The George Washington University, priority 2006, dated 2014).

“Also recorded” adds a separate entry of the source.

For assay [1], the system named is DR5::GUS. The assay can be described thus: Histochemical GUS assay in auxin responsive reporter DR5::GUS seedlings. The class given is in vivo, Arabidopsis thaliana. Here is the method:
DR5::GUS reporter was grown for 10 days and subjected to histochemical GUS staining for 10 hrs. The development of blue color indicates the detection of the presence of auxins that function in the regulation and formation of lateral roots
To assess the role of auxins in the AtGLR response, the effect of DNQX on auxin levels were evaluated. Auxin responsive reporter plants carrying the expression system DR5::GUS were used in the histochemical assays. […] Similar results were reported in phosphate starvation studies (Nacry et al. 2005 Plant Physiol. 138:2061).

Assay [2] deals with LR primordia. The assay can be described thus: Microscopic analysis of LR primordia (LRP) formation and elongation. Format: in vivo, Arabidopsis thaliana. The following applies: 400 μM DNQX vs DMSO control. The text has this: B. DMSO control had fully emerged LR and more LRPs Arrows indicate an LRP that is inhibited, (A) or a fully emerged LR, (B).
(§1) The genetic and physiological analyses described above were complemented with pharmacological studies where the functions of AtGLRs were inhibited with iGLR specific inhibitors/antagonists. […] L-Glu is the bioactive ligand for iGLRs. […] Thus the inhibitors of AtGLRs can block LR elongation drastically and specifically. Furthermore DNQX mediated LR elongation inhibition is reversed by L-Glu.

The subject of assay [3] is AtGLRs (PR and LR elongation of seedlings). Kind of assay: Root elongation of seedlings on plates with the iGLR antagonist DNQX. The class given is in vivo, Arabidopsis thaliana. Here is the method: A. Control, B. DNQX treated. Note the lack of LR in DNQX-treated seedlings (b) versus LR in DMSO control. Both plates contained 10 μM KNO3. DNQX is an inhibitor (antagonist) of animal iGLRs and plant GLRs. The lateral root in the DMSO control is indicated by an arrow.
Note glutamate is the natural binding chemical (ligand) to animal iGLRS and puataive ligand for plant GLRs.
The present invention describes the function for AtGLRs in N sensing, absorption (FIG. 3, Forde, B G. 2002. Annu. Rev. Plant Biol. 53:203), assimilation (FIG. 12), plant growth and development (FIG. 11, 13). These claims were validated with pharmacological (FIG. 6-9), physiological (FIG. 10, 11, 13) and immunobot analyses of N assimilatory enzymes (FIG. 12).
as §1

In assay [4] the test system is L-Glu induced ion channel activity in plants. The following applies: Mayerhoff et al. 2005. Planta. 222:418; cited from earlier work.

Take `O=c1[nH]c2cc([N+](=O)[O-])c([N+](=O)[O-])cc2[nH]c1=O` [DNQX, 6,7 dinitroquinoxaline-2-3-[1H,4H]-dione]: in assay [1] (400 μM DNQX, grown 10 days, GUS staining for 10 hrs, vs control plants), the “Auxin levels in PR and LR apex/primordia (DR5::GUS expression)” value is “higher levels of auxins in PR and LR primordia; also recorded: hyper accumulation of auxins”. In addition, the “LR and PR elongation of DR5::GUS seedlings” value in assay [1] (incubated with 400 μM DNQX) is “inhibition of LR and PR elongation”. In assay [2], the “Further elongation of LR primordia” value was “further elongation of primordia is inhibited; also recorded: inhibits number of LRP formed and their elongation”; the “Number of LRP formed (LR primordia initiation)” value is “reduced the number of LR primordia initiation; also recorded: inhibits number of LRP formed”. Also, the “PR and LR growth and elongation” value in assay [3] (DNQX at 400 μM, DMSO control, plates with 10 μM KNO3) was “inhibit PR and LR elongation; also recorded: inhibit LR growth and elongation”. Further, the “Reversal of DNQX mediated inhibition by coincubation with L-Glu” value in assay [3] (coincubation with 10 mM L-glutamate) was “restored to normal growth; also recorded: can be reversed”. Besides, in assay [3] (seedlings transferred to a media without DNQX), the “Reversibility of DNQX mediated PR and LR inhibition” value is “restored to normal growth; also recorded: reversibly and temporarily”. The “L-Glu induced ion channel activity in plants” value in assay [4] is recorded as “block L-Glu induced ion channel activity”.
